Publication PMC11123692, “Sugar-Based Surfactants: Effects of Structural Features on the Physicochemical Properties of Sugar Esters and Their Comparison to Commercial Octyl Glycosides” (Molecules, 2024)
In brackets after ≈: the same amount, converted by molar mass. Several values for one entry are separate records, joined by “and”; a condition that tells them apart may be missing. Equal values may be shown once. Read-outs that look alike come from different tables or passages of the source.

Assays:
[1] = Water solubility limit by visual examination (transparent/turbid); format: physicochemical; conditions: for solubility: thermodynamic from solid, read-out: Solubility Limit (S/mM)
Description: Water solubility reflects the ability of a particular molecule to dissolve and its interaction with water. To characterize the water solubility of most amphiphile molecules, especially the ionic surfactants, the Krafft point (Tk) is often used, referring to the critical temperature above which micelles form or the melting point of the hydrated solid surfactant. Two general approaches were used to measure the Tks of the molecules investigated herein: (1) a visual examination of the dissolution phenomenon for binary molecule/water systems, and (2) a quantitative measurement by using differential scanning calorimetry (DSC) analysis. The visual observation procedure is detailed below. […] Consequently, molecules can be classified into two major types: those soluble in water at RT and others insoluble at RT, with the solubility limit being called S (expressed in mM). The aspect of the sample, either transparent or turbid, is determined by direct visual examination. Tk determination with DSC is particularly applicable in the case of molecules insoluble at RT, for which a concentrated binary molecule/water mixture with a mass fraction of 20% of each molecule (C >> CMC in most cases) was prepared at 65 °C under stirring for 30 min to obtain a homogeneous system. These pre-homogenized aqueous systems were cooled and conserved in a refrigerator at 4 °C for a suitable period (>7 days), during which equilibrated hydrated crystals formed and precipitated. Then, for each molecule, about a 200–400 mg crystal sample was taken and put into the calorimeter cell. The first equilibrium phase was programmed at 4 °C for 1 h, followed by a slow heating stage from 4 °C to 65 °C at a rate of 0.5 °C/min. Tk was determined based on the location of the endothermic peak on the DSC curve, if any. All agitations were performed using a standard magnetic hotplate stirrer, MR 3001K (Heidolph Instruments, Schwabach, Germany). DSC curves were obtained from a commercial µDSC7 evo calorimeter (SETARAM Instrumentation, Caluire-et-Cuire, France). Tks are reported as the averages of at least two measurements as well as their standard deviations.

[2] = Equilibrium surface tension, Wilhelmy plate method (CMC, γcmc, Amin and derived quantities); format: physicochemical; conditions: for Amin: from Gibbs adsorption equation
Protocol: CMCs are determined from the inflections in the plots of equilibrium surface tension against the logarithm of the concentration. For the interested reader, the Gibbs-free energy of micellization, ΔGmic, the Gibbs-free energy of adsorption, ΔGads, and the efficiency of surfactant adsorption pC20 were calculated based on their definitions, as presented in Table 2.
The surface activity reflects the amphiphiles’ adsorption behavior on the air–aqueous solution interface. The surface tension (γ) was obtained using the Wilhelmy plate method with a K100 Processor Tensiometer (KRUSS, Hamburg, Germany). Both the critical micellar concentration (CMC) and equilibrium surface tension at the CMC (γcmc) were derived from the typical plot of surface tension (γ) against the logarithm of concentration (Log C). The surface excess (Γmax) and minimal area per molecule at the air–aqueous solution interface (Amin) at different temperatures were calculated from the Gibbs adsorption equation [3, 46]:(2) Γmax=−1/2.303RT(dγ/dlogc) and (3) Amin=10^20/NAΓmax where R is the ideal gas constant, 8.31 J∙mol^−1∙K^−1; T is the measuring temperature, K; γ is the surface tension, N/m; c is the concentration, mol.L^−1; Amin is the minimal area per molecule, Å^2, and NA is Avogadro’s number, 6.022·10^23 mol^−1.
For each molecule, several solutions of a wide range of concentrations were prepared. Before measuring, each solution was finely homogenized with the help of a magnetic stirring bar. The stirring time was fixed at 30 min in all cases. […] Then, measurements were performed once for each concentration, at the solution preparation’s temperature, with an uncertainty of ±1 °C.

[3] = Krafft temperature (Tk) by visual examination and DSC of molecule/water systems; format: physicochemical; conditions: in water; observation and DSC; average ± SD of at least two measurements
Description: Water solubility reflects the ability of a particular molecule to dissolve and its interaction with water. To characterize the water solubility of most amphiphile molecules, especially the ionic surfactants, the Krafft point (Tk) is often used, referring to the critical temperature above which micelles form or the melting point of the hydrated solid surfactant. Two general approaches were used to measure the Tks of the molecules investigated herein: (1) a visual examination of the dissolution phenomenon for binary molecule/water systems, and (2) a quantitative measurement by using differential scanning calorimetry (DSC) analysis. The visual observation procedure is detailed below. We start with adding the molecule into 5–50 mL water, in a concentration range between 10^−2 mM and 10^3 mM (corresponding to a range of a surfactant mass concentration well below 20%), keeping the suspension under stirring for a certain time at room temperature (RT). Consequently, molecules can be classified into two major types: those soluble in water at RT and others insoluble at RT, with the solubility limit being called S (expressed in mM). The aspect of the sample, either transparent or turbid, is determined by direct visual examination. Tk determination with DSC is particularly applicable in the case of molecules insoluble at RT, for which a concentrated binary molecule/water mixture with a mass fraction of 20% of each molecule (C >> CMC in most cases) was prepared at 65 °C under stirring for 30 min to obtain a homogeneous system. These pre-homogenized aqueous systems were cooled and conserved in a refrigerator at 4 °C for a suitable period (>7 days), during which equilibrated hydrated crystals formed and precipitated. Then, for each molecule, about a 200–400 mg crystal sample was taken and put into the calorimeter cell. The first equilibrium phase was programmed at 4 °C for 1 h, followed by a slow heating stage from 4 °C to 65 °C at a rate of 0.5 °C/min. Tk was determined based on the location of the endothermic peak on the DSC curve, if any. All agitations were performed using a standard magnetic hotplate stirrer, MR 3001K (Heidolph Instruments, Schwabach, Germany). DSC curves were obtained from a commercial µDSC7 evo calorimeter (SETARAM Instrumentation, Caluire-et-Cuire, France). Tks are reported as the averages of at least two measurements as well as their standard deviations.

[4] = set-up: method as in doi:10.1039/C4MD00122B; conditions: ITC at 25 °C; cited from earlier work
[5] = cited from earlier work; for CMC / γcmc: Wilhelmy plate method at 25 °C
[6] = Precipitation on cooling previously heated 50 mM aqueous solutions; format: physicochemical; conditions: 50 mM in water
Protocol: For commercial alkyl glucosides, the Tk decreases in the following sequence: C8αGlc > C8βGal >> C8βGlc ≈ C8αGal. […] The obtained Tk for C8αGlc is around 40 °C in accordance with previously published values. However, as determined by the same experimental protocol, the Tk for C8βGal is about 29 °C, much lower than 42 °C derived from the phase diagram reported by Sakya et al. A possible explanation is that Sakya et al. synthesized and purified C8βGal by themselves, whereas we carried our measurements on commercially purchased C8βGal. […] For this reason, we assume that many researchers have been able to investigate their aqueous solutions at 25 °C, as mentioned in the introduction. In addition, when cooling the previously heated solutions with the same molecular concentration of 50 mM, we noted that C8αGlc precipitated much faster than C8βGal. […] This may, to some extent, be explained by a more favorable crystal structure for C8αGlc than C8βGal. With regard to C8αGal, which is presented in commercial samples as a highly viscous liquid, we expect it to have the weakest crystal structure and a very low Tk value. However, our experimental methods cannot give its exact Tk. […]

[7] = cited from earlier work

solubility ([1]; water, water, at RT) [mM] | C20 ([2]; T = 25 °C) [mM] | pC20 ([2]; T = 25 °C) | ΔGads ([2]; T = 25 °C) [kJ/mol] | ΔGmic ([2]; T = 25 °C) [kJ/mol] | CMC ([2]; T = 25 °C (T > Tk)) | γcmc ([2]; T = 25 °C (T > Tk)) [mN/m] | Amin ([2]; T = 25 °C) [Å^2/molecule] | solubility ([1]; water, water, at T > Tk) [mM] | precipitation when cooling the previously heated solution [6] | SMILES | CMC [4] [mM] | CMC [5] [mM] | γcmc [5] [mN/m] | also measured
> 100 | 3.8 | 2.4 | -26.8 | -15.1 | 51.7 mM and 51.7 ± 1.5 mM | 29.5 ± 0.2 | 45.8 ± 0.9 | – | – | CCCCCCCCO[C@H]1O[C@H](CO)[C@H](O)[C@H](O)[C@H]1O [Molecule C8αGal, Octyl α-D-galactopyranoside, reference compound] | 30.2 ± 0.4 | – | – | Tk (Krafft temperature) [3]: <4 °C
– | – | – | – | – | – | – | – | > 100 | within an hour | CCCCCCCCO[C@H]1O[C@H](CO)[C@@H](O)[C@H](O)[C@H]1O [Molecule C8αGlc, Octyl α-D-glucopyranoside, reference compound] | – | 12 | 30.5 | Solubility Limit (S/mM) ([1]; water, at RT): insoluble; C20 ([2]; T = 50 °C): 2.8 mM; pC20 ([2]; T = 50 °C): 2.6; ΔGads ([2]; T = 50 °C): -29.3 kJ/mol; ΔGmic ([2]; T = 50 °C): -19.7 kJ/mol; CMC ([2]; T = 50 °C (T > Tk)): 15.5 mM and 15.5 ± 0.5 mM; γcmc ([2]; T = 50 °C (T > Tk)): 30.7 mN/m and 30.7 ± 0.3 mN/m; Amin ([2]; T = 50 °C): 43 ± 1.8 Å^2/molecule
10 to 20 (≈ 2.92 to 5.85 mg/mL) | – | – | – | – | – | – | – | > 100 | no change was observed over one month | CCCCCCCCO[C@@H]1O[C@H](CO)[C@H](O)[C@H](O)[C@H]1O [Molecule C8βGal, octyl β-D-galactopyranoside, reference compound] | 31.7 ± 0.7 | 16 | 30.5 | aspect of solution ([1]; 20 mM in water at room temperature): nearly transparent; C20 ([2]; T = 40 °C): 3.2 mM; pC20 ([2]; T = 40 °C): 2.5; ΔGads ([2]; T = 40 °C): -29.7 kJ/mol; ΔGmic ([2]; T = 40 °C): -18.4 kJ/mol; CMC ([2]; T = 40 °C (T > Tk)): 20 mM and 20 ± 1 mM; γcmc ([2]; T = 40 °C (T > Tk)): 28.5 mN/m and 28.5 ± 0.5 mN/m; Amin ([2]; T = 40 °C): 46.3 ± 1.7 Å^2/molecule; Tk ([7]; derived from the phase diagram of Sakya et al.): 42 °C
> 100 | 2.7 | 2.6 | -26.8 | -17.2 | 21.2 mM and 21.2 ± 0.8 mM | 31.0 ± 0.15 | 38.5 ± 1.9 | – | – | CCCCCCCCO[C@@H]1O[C@H](CO)[C@@H](O)[C@H](O)[C@H]1O [Molecule C8βGlc, octyl β-D-glucopyranoside, reference compound] | – | – | – | Amin ([5]; ref 23): 38 Å^2/molecule; Amin ([5]; ref 46): 42 Å^2/molecule; solubility relative to octyl-α-D-glucoside (C8αGlc) ([7]; ref 25): about seven times larger
